Results on 2 compounds are retold here after US9771430B2, “Method of treating a metabolic disorder induced by obesity in a subject in need thereof by administering MK2/3 inhibitors” (THE TRUSTEES OF COLUMBIA UNIVERSITY IN THE CITY OF NEW YORK, priority 2011, dated 2017).

In one assay the test system is CaMKII. In words: CaMKII enzyme activity assay in primary mouse hepatocytes. In kind it is cell-based. The following applies: HCs, 100 nM glucagon, various times. As for the experimental part: FIGS. 1A-J. Glucagon and fasting activates hepatic CaMKII. FIG. 1A. CaMKII enzyme activity was assayed in triplicate wells of primary mouse HCs stimulated with 100 nM glucagon (Gluc) or vehicle control (Veh) for the indicated times (*P<0.05 and **P<0.01 vs. Veh; mean±S.E.M.). FIGS. 1B-1J. Extracts of HCs or liver were probed for phospho-CaMKII, total CaMKII, and β-actin by immunoblot assay. FIG. 1B. HCs were incubated with […] glucagon for the indicated times; FIG. 1C. Glucagon was added to HCs that were pre-treated for 1 h with vehicle control (Veh) or 5 μM BAPTA-AM; FIG. 1D. […]
CaMKII activity was assayed using a CaMKII assay kit from Promega according to the manufacturer's instructions. […] Next, [γ-32P]ATP and CaMKII biotinylated peptide substrate were added to the lysate and after incubation for 10 minutes at 30° C., the [32P]-phosphorylated substrate was separated from the residual [32P]ATP using SAM biotin capture membrane and quantitated using a scintillation counter.
CaMKII activity was assayed using a CaMKII assay kit from Promega according to the manufacturer's instructions. […] After incubation for 10 min at 30° C., the [^32P]-phosphorylated substrate was separated from the residual [^32P]ATP using SAM biotin-capture membrane and then quantitated using a scintillation counter. […]

In a further assay the test system is CRTC2. In words: CRTC2 dephosphorylation and nuclear translocation in primary hepatocytes. The following applies: inhibitor pre-treatment 1 h, glucagon 100 nM. In kind it is cell-based, mouse. As to the method:
(§1) HEK293T (ATCC) cells were cultured in DMEM containing 10% FBS (HyClone), […] penicillin-streptomycin. Mouse primary hepatocytes were isolated and cultured as previously described (18). Cellular fractionation studies were conducted as previously reported (18). For reporter studies, Ad-CRE-luc infected hepatocytes (1 pfu per cell) were exposed to glucagon (Gcg, 100 nM) for 2˜4 h. For cyclosporine A (CsA, 10 μM) or okadaic acid (OA, 100 nM) or cell permeable calcineurin autoinhibitory peptide (10 μM) or CN585 (100 μM) or Calyculin A (10 nM) or Xestospongin C (Xc, 2 μM) or H89 (30 μM) or BAPTA (50 μM) inhibition, hepatocytes were pre-treated with the inhibitors for one hour. Luciferase activities were normalized to β-galactosidase activity from adenoviral-encoded RSV β-gal. Calcineurin activity (test kit from Enzo Life Sciences) and cellular cAMP levels (test kit from Cayman Chemical Company) were measured according to manufacturer's instructions.
Immunoblot, immunoprecipitation, and immunostaining assays were performed as described (18). CRTC2, pCREB (Ser133), CREB, pAKT (Thr308), AKT, tubulin, HA, and FLAG antibodies were previously described (18). The antibodies anti-InsP3R1 (A302-158A) and InsP3R3 (A302-160A) were purchased from Bethyl Laboratories, anti-InsP3R2 (ab77838) from Abcam, anti-Calcineurin (610260) from BD Biosciences, anti-GRP78 (ADI-SPA-826-F) from Enzo Life Sciences, anti-phospho-PKA substrate (RRXS/T, 9624), anti-phospho-AKT substrate (RXXS/T, 9614) and CRTC2 (pS171, 2892) from Cell Signaling. CRTC2 (pS275) antibody was employed as described (19).

Assay [1] deals with CRE-luciferase (luc) reporter. Briefly: CRE-luciferase reporter activity in primary hepatocytes. In kind it is cell-based, mouse. Particulars: response to glucagon. As to the method:
as §1

In a further assay the test system is calcineurin. In words: Calcineurin activity in primary hepatocytes. It is filed as cell-based, mouse. As to the method:
as §1

Another assay has as its system IP3R. Briefly: IICR in freshly isolated peritoneal cavity macrophages of Xestospongin C-treated ob/ob mice. It is filed as in vivo, mouse. Particulars: treatment of ob/ob mice. The source says:
FIGS. 50A-M. The role of IP3R in obesity/insulin resistance induced hyperglycemia and gluconeogenesis. FIG. 50A. Evidence that Xestospongin C Treatment of ob/ob Mice Inhibits IP3R Assay of IICR in Freshly Isolated Peritoneal Cavity Macrophages. FIG. 50B-E. Inhibition of IP3R Reduces Fasting Blood Glucose Levels in ob/ob Mice. FIG. 50F. Inhibition of IP3R Reduces Hepatic Expression of PEPCK, G6Pase, and PGC1α in ob/ob. FIG. 50G-I. Inhibition of IP3R Reduces Expression of PEPCK, G6Pase, and PGC1α in Palmitate-Treated Hepatocytes as a Model of ER Stress and Insulin Resistance. FIG. 50J-K. Inhibition of IP3R Reduces Expression of G6Pase and PEPCK in Akt-Inhibited Hepatocytes as a Model of Insulin Resistance. FIG. 50L. IP3R Activity is Required for Forskolin-Induced TORC2 Dephosphorylation. FIG. 50M. IP3R Activation is Required for TORC2 Nuclear Retention.

Assay [2] has as its system IP3-mediated Ca2+ release. The following applies: cited from earlier work.

Entries after “also recorded” stand apart in the source; their conditions may differ.

Consider “glucagon: hormone used to stimulate hepatocytes and mice”, for which the CaMKII activity result with CaMKII is “increased steadily as a function of time; also recorded: increases as a function of time”.
In the case of `C1CCC[C@H]2CCCN3CC[C@@H](CCCCCC[C@@H]4CCCN5CC[C@@H](CC1)O[C@@H]45)O[C@@H]23` [Xestospongin C], the “glucagon-induced dephosphorylation (and nuclear translocation) of CRTC2” value in the assay on CRTC2 is listed as “blocked”. Also, the “CRE-luciferase (luc) reporter activity / activation” value in assay [1] is recorded as “blocked”. Further, the “calcineurin activation in response to glucagon and forskolin” value with calcineurin is on record as “disrupted”. Also, the “IP3R (IICR) in peritoneal cavity macrophages” value in the assay on IP3R is “Inhibits”. Moreover, the “selectivity over the skeletal isoform of the ryanodine receptor type 1 (RyR-1)” value in assay [2] was “high selectivity”. In addition, the IC50 (in general, the concentration that gives 50% inhibition) in assay [2] (read-out: IC50, blocker of IP3-mediated Ca2+ release) was 358 nM.
